Values quoted from earlier work, collected in patent publication US20200009118A1, “COMPOSITIONS AND METHODS FOR THE TREATMENTOF NEURODEGENERATIVE AND OTHER DISEASES” (Glialogix, Inc., priority 2017, published 2020).

Conditions: cited from earlier work

## Nc1ccc(S(=O)(=O)Nc2ccccn2)cc1 [Sulfapyridine, sulfapyridine]
  oral bioavailability (reaching the circulation following oral dosing): > 70%
